Data reported in US9718859B2, “Glycogen synthase kinase-3 inhibitors” (Ramot at Tel-Aviv University Ltd., priority 2013, dated 2017).
Entries after “also recorded” stand apart in the source; their conditions may differ. Values belong to the molecule of their own block, whether it stands above or below them. Square brackets hold non-standard residues; d marks the D form. Ends that are not written are not given here. Peptide text beside a SMILES is read from it. * marks the point of attachment. Myristoyl = CCCCCCCCCCCCCC(=O)*; pS = N[C@@H](COP(=O)(O)O)C(=O)O

Assays:
[1] = biological target: GSK-3 (Homo sapiens, UniProt P49841); details: Licht-Murava et al. 2011; cited from earlier work
Chain of GSK-3 (P49841 whole entry): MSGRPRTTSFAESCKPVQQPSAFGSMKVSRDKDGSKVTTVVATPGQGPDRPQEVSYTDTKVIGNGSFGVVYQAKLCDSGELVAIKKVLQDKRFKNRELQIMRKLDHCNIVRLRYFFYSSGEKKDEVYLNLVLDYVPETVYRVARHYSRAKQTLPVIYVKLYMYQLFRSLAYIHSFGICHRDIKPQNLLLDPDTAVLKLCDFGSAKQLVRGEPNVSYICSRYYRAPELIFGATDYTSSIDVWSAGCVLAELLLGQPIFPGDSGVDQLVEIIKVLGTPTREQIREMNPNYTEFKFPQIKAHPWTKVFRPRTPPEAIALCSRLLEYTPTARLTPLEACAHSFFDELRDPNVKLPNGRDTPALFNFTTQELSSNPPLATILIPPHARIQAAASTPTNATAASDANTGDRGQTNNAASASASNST

[2] = biological target: T1, GSK-3β F93A mutant (Homo sapiens, UniProt P49841, F93A); experiment: In vitro kinase assay: phosphorylation of the peptide as a substrate by the GSK-3β F93A mutant; type: biochemical; details: FIG. 5
T1 construct: made in house, partially purified on a DE-52 minicolumn
T1 sequence (P49841 whole entry F93A): as the sequence (P49841 whole entry) above, with F93A counted along it
Protocol: (§1) GSK-3β F93A mutant (in which Phe93 was replaced by alanine) was prepared as described in WO 2012/101599.
(§2) In assays conducted with GSK-3 mutant, the GSK-3β proteins (WT or mutant) were incubated with the indicated substrate in a reaction mixture (50 mM Tris-HCl, pH 7.3, 10 mM magnesium acetate, and 0.01% β-mercaptoethanol) together with 100 μM ^32P[γ-ATP] (0.5 μCi/assay) for 15 minutes. Reactions were stopped by spotting on p81 paper (Whatman) washed with phosphoric acid, and counted for radioactivity as previously described [Ilouz et al. (2006) supra]. In assays from cells overexpressing GSK-3 proteins, GSK-3 proteins were partially purified by DE-52 minicolumn and subjected to in vitro kinase assays as described. The activity of the endogenous GSK-3 that was determined in cells transfected with the pCMV4 vector was subtracted from the activity values obtained for WT and mutants.
Thus, L807 and the substrate pHSF-1 were both tested in in vitro kinase assays as described hereinabove, for the ability of GSK-3β (WT) and its F93A mutant to phosphorylate these peptides.

[3] = biological target: T2, GSK-3β (WT) (Homo sapiens, UniProt P49841); experiment: In vitro kinase assay: phosphorylation of the peptide as a substrate by GSK-3β (WT), 32P-γ-ATP; type: biochemical; details: WT GSK-3β, FIG. 3 and FIG. 5
T2 construct: made in house
T2 sequence (P49841 whole entry): as the sequence (P49841 whole entry) above
Protocol: (§3) GSK-3β (WT) was incubated with pIRS-1, RREGGMSRPAS(p)VDG (SEQ ID NO:55), as an exemplary substrate, in a reaction mixture (50 mM Tris-HCl, pH 7.3, 10 mM magnesium acetate, and 0.01% β-mercaptoethanol) together with 100 μM 32P[γ-ATP] (0.5 μCi/assay) for 15 minutes. Reactions were stopped by spotting on p81 paper (Whatman), washed with phosphoric acid, and counted for radioactivity as previously described [Ilouz et al. (2006) supra].
as §2
Thus, in vitro kinase assays as described hereinabove were performed in the presence of pIRS-1 substrate or L807 and phosphorylation was determined. […]

[4] = biological target: T1, GSK-3β F93A mutant; experiment: In vitro kinase assay: inhibition of the GSK-3β F93A mutant, pIRS-1 as substrate; type: biochemical; details: FIG. 6
Protocol: as §1, §2
In vitro kinase assays conducted for evaluating the inhibition activity of L807 and pL807 of the F93A mutant were also conducted, using pIRS-1 as a substrate.

[5] = system: Aβ loads; experiment: Congo red staining of Aβ loads in brain sections of 5XFAD mice; type: in vivo, mouse; details: intranasal 60 μg/dose for 120 days, FIG. 8B
Protocol: 5XFAD mice were purchased from Jackson laboratory and maintained at an animal house. The 5XFAD mice were randomly assigned to two groups (6 animals each). Treatment started at the age of 2 months, by administering, intranassally, L807-mts (60 μg) (5 μl solution in each nostril) every other day for 120 days. Saline-perfused brains of the tested mice were rapidly excised and frozen in N2. Brains were divided into the two hemispheres: the left hemisphere was taken for immunohistology and the right hemisphere for immunoblot analysis. Coronal brains sections (14 μm) were cut by cryostat at -20° C. Slices at Bregma -1.58 mm were fixed (using 4% PFA) and stained with Congo red dye (Sigma-Aldrich) or with an antigen-retrieval method with anti-Aβ 6E10 antibody (SIG-39300) and visualized by fluorescence microscopy. Quantification of Aβ depositions was done for the whole hippocampus area in a blinded fashion using Imaging Research software from the NIH in an unbiased stereological approach. Mice were scarified and coronal brain sections were stained with congo red dye and Aβ loads were visualized by fluorescence microscopy.

[6] = system: 5XFAD mice; experiment: Contextual fear conditioning test in 5XFAD mice; type: in vivo, mouse; details: intranasal, 60 μg/dose every other day for 120 days, FIG. 8A
Protocol: 5XFAD mice were purchased from Jackson laboratory and maintained at an animal house. The 5XFAD mice were randomly assigned to two groups (6 animals each). Treatment started at the age of 2 months, by administering, intranassally, L807-mts (60 μg) (5 μl solution in each nostril) every other day for 120 days.
A contextual fear conditioning test (FCT) was thereafter conducted as described in Saura et al. (2005) J. Neurosci. 25(29), 6755-6764. Briefly, mice were subjected to an unconditioned electric stimulus (US footshock; 1 s/1 mA) in a training pre-session. Twenty-four hours later, FCT was measured by scoring freezing behavior (the absence of all but respiratory movement) for 180 seconds using a FreezeFrame automated scoring system (Coulbourn Instruments). All experiments were in compliance with protocols approved by the TAU animal care committee.
Mice (two-month old) were treated intranasally with L807-mts (60 μg/dose) for 120 days. At the end of the experiment mice were subjected to the contextual fear conditioning test (FCT), a behavioral test widely used to evaluate associative learning and memory (see, Saura et al. (2005) supra).

[7] = biological target: T2, GSK-3β (WT); experiment: In vitro kinase assay: inhibition of GSK-3β (WT), pIRS-1 as substrate; type: biochemical; details: FIG. 4
Protocol: Bacterially expressed Purified GSK-3β Wild-Type (WT) was prepared as previously described (Eldar-Finkelman 1996 PNAS).
as §3
The ability of the novel peptides described in Example 1 to inhibit GSK-3β was determined by in vitro kinase assays as described hereinabove. The results are presented in FIGS. 2A-B. Substrate phosphorylation obtained in reaction with no inhibitor was defined as 100% (Con), and the results presented are means of two independent experiments each performed in duplicate±SEM.

[8] = biological target: T1, GSK-3β F93A mutant; details: Licht-Murava et al. 2011; cited from earlier work

Molecule: C[C@H](NC(=O)[C@H](CCC(=O)O)NC(=O)[C@@H](N)CCCCN)C(=O)N1CCC[C@H]1C(=O)N1CCC[C@H]1C(=O)N[C@@H](C)C(=O)N1CCC[C@H]1C(=O)N1CCC[C@H]1C(=O)N[C@@H](CCC(N)=O)C(=O)N[C@@H](COP(=O)(O)O)C(=O)N1CCC[C@H]1C(=O)O [L803, KEAPPAPPQS(p)P] (H-KEAPPAPPQ[pS]P-OH; N-terminus and C-terminus assumed)
Interaction with F93 of GSK-3, binding mode as previously reported [1]: contacts GSK-3 residue F93

Peptide phosphorylation by F93A mutant [2]: phosphorylated
Inhibition of the F93A mutant [4]: no inhibition
Molecule: C[C@H](NC(=O)[C@H](CCC(=O)O)NC(=O)[C@@H](N)CCCCN)C(=O)N1CCC[C@H]1C(=O)N1CCC[C@H]1C(=O)N[C@@H](CO)C(=O)N1CCC[C@H]1C(=O)N1CCC[C@H]1C(=O)N[C@@H](CCC(N)=O)C(=O)N[C@@H](COP(=O)(O)O)C(=O)N1CCC[C@H]1C(=O)O [L807, KEAPPSPPQS(p)P] (H-KEAPPSPPQ[pS]P-OH; N-terminus and C-terminus assumed)
Peptide phosphorylation by GSK-3β (substrate or not) [3]: is a substrate of GSK-3; also recorded: phosphorylated

Molecule: CCCCCCCCCCCCCC(=O)NCC(=O)N[C@@H](CCCCN)C(=O)N[C@@H](CCC(=O)O)C(=O)N[C@@H](C)C(=O)N1CCC[C@H]1C(=O)N1CCC[C@H]1C(=O)N[C@@H](CO)C(=O)N1CCC[C@H]1C(=O)N1CCC[C@H]1C(=O)N[C@@H](CCC(N)=O)C(=O)N[C@@H](COP(=O)(O)O)C(=O)N1CCC[C@H]1C(=O)O [L807-mts, myristic acid-GKEAPPSPPQS(p)P] (Myristoyl-GKEAPPSPPQ[pS]P-OH; C-terminus assumed)
Amount and mean sizes of Aβ loads [5]: largely reduced
Freezing behavior, performance relative to wild-type (WT) mice [6]: up to 81%±14%

Inhibition of GSK-3 [7]: does not inhibit GSK-3
Peptide phosphorylation by GSK-3β (substrate or not) [3]: is not a substrate of GSK-3
Molecule: KEAPPS(p)PPQS(p)P (KEAPP[pS]PPQ[pS]P) [pL807, double phosphorylated L807]

Molecule: RREGGMSRPAS(p)VDG (RREGGMSRPA[pS]VDG) [pIRS-1, GSK-3 substrate peptide from the insulin receptor substrate-1]
Peptide phosphorylation by F93A mutant (literature) [8]: not phosphorylated
